# Laboratory results taken from patent US20210113586A1, “NEW USE AND METHODS OF MODULATING IMMUNE RESPONSES” (DIAMYD MEDICAL AB, priority 2018, published 2021).
# Key:
# [1] = tested on: PBMCs from ND individuals; details: Example 1, FIG. 1C; PBMCs of 15 healthy donors; 100 nM GABA
# Experimental: Peripheral Blood Mononuclear cells (PBMCs) are isolated from blood from donors diagnosed with Type-1 diabetes and healthy controls. Alternatively, CD4-positive cells (T-cells) are further isolated from PBMCs by e.g. MACS beads, FACS or similar technology. […] A reasonable replication, such as 3 cultures of each condition, is performed. A normalized proliferation value for each culture is then calculated by a standard proliferation measurement method, such as by CFSE staining or radioactive thymidine incorporation (requiring additional factors be added during culture) or by staining for proliferation markers.
# In the FIG. 1, the proliferation of cells retrieved from 13 T1D subjects and 15 healthy controls were inspected. […] A normalized proliferation index was calculated for each culture.
# The proliferation of freshly isolated human PBMCs or CD4^+ T cells was evaluated with MTT (3-(4,5-Dimethylthiazol-2-yl)-2,5-Diphenyltetrazolium Bromide) assay (Ring et al., 2012). Cells were suspended in complete medium (RPMI 1640 supplemented with 2 mM glutamine, 25 mM HEPES, 10% heat inactivated fetal bovine serum, 100 U/ml penicillin, 10 mg/ml streptomycin, 5 mM R-mercaptoethanol) in a concentration 1 million cells per milliliter. […] The formazan crystal pellet was dissolved in DMSO and the plate was read within 10 min using a Multiskan MS plate reader (Labsystems) at 550 nm. […]
# [2] = tested on: PBMCs from nondiabetic (ND) individuals; details: GABA 100 nM, normalized to control
# Experimental: (§1) The proliferation of freshly isolated human PBMCs or CD4^+ T cells was evaluated with MTT (3-(4,5-Dimethylthiazol-2-yl)-2,5-Diphenyltetrazolium Bromide) assay (Ring et al., 2012). Cells were suspended in complete medium (RPMI 1640 supplemented with 2 mM glutamine, 25 mM HEPES, 10% heat inactivated fetal bovine serum, 100 U/ml penicillin, 10 mg/ml streptomycin, 5 mM R-mercaptoethanol) in a concentration 1 million cells per milliliter. The assay was performed in 96-well plates in duplicates or triplicates, where each well was pre-coated with 3 μg/ml anti-CD3 antibody for 3-5 h at 37° C. Each well was loaded with 100,000 cells. Drugs were added to the wells at the relevant concentrations. The plate was incubated for 68 h at 37° C. (95% O2, 5% CO2) and then, a media-soluble tetrazolium dye MTT was added to a final concentration of 1 mM after which the plate was incubated for additional 4 h. The plate was then centrifuged at 2,000 RPM for 10 min to pellet the insoluble purple formazan crystals. The supernatant culture media was collected, stored at −80° C. and used for analysis of cytokines using the multiplex proximity extension assay (PEA). The formazan crystal pellet was dissolved in DMSO and the plate was read within 10 min using a Multiskan MS plate reader (Labsystems) at 550 nm. The optical density value was used as the proliferation index value. Drugs were purchased from Sigma-Aldrich or Tocris (Bristol, UK).
# (§2) Plasma samples, and culture media samples that were collected from plate wells at the end of the proliferation assay, were analyzed by multiplex PEA with an Olink Inflammation […] panel, targeting 92 proteins related to inflammation (Olink Proteomics, Uppsala, Sweden) as previously described (Edvinsson et al., 2017, Assarsson et al., 2014, Larsson et al., 2015, Larssen et al., 2017). Briefly, 1 μl of sample (plasma samples or cell culture media samples) or negative control was mixed with 3 μl probe solution containing a set of 92 paires DNA-oligonucleotide-conjugated antibodies. Upon recognition of a target protein by a pair of probes, the DNA oligonucletodies on the antibodies are brought in proximity and hybridize to each other, followed by enzymatic DNA polymerization to form a new DNA molecule. The newly formed DNA molecule is then amplified and quantified using a microfluidic real-time qPCR, BioMark™ HD (Fluidigm, South San Francisco, Calif., USA). The generated quantification cycle (Cq) values are normalized against spiked-in controls to convert Cq values to Normalized Protein eXpression (NPX) value on log2 scale. NPX is an arbitrary unit, which is positively correlated to protein concentration. These NPX data were then converted to linear data, using the formula 2^NPX, prior to further statistical analysis. Limit of detection (LOD) for each protein was defined as three standard deviations above the background. Proteins with levels below LOD were excluded from further data analysis.
# [3] = tested on: PBMCs from type 1 diabetic (T1D) patients; details: GABA 100 nM
# Experimental: as §1, §2
# [4] = T1D PBMCs, normalized to control
compound,measurement,setting,value
"NCCCC(=O)O [GABA, gamma-aminobutyric acid]",proliferation in the presence of GABA,[1],did not proliferate differently
same,"AXIN1 in culture medium, % Mean",[2],82.3%
same,"CCL4 in culture medium, % Mean",[2],95.3%
same,"CD244 in culture medium, % Mean",[2],92.5%
same,"CXCL9 in culture medium, % Mean",[2],81.3%
same,"IL-12B in culture medium, % Mean",[2],84.8%
same,"IL-18R1 in culture medium, % Mean",[2],90.7%
same,"LIF in culture medium, % Mean",[2],88.5%
same,"OPG in culture medium, % Mean",[2],81.8%
same,"OSM in culture medium, % Mean",[2],88.1%
same,"PD-L1 in culture medium, % Mean",[2],87.8%
same,"SIRT2 in culture medium, % Mean",[2],81.6%
same,"TNF in culture medium, % Mean",[2],74.1%
same,"TNFB in culture medium, % Mean",[2],95.7%
same,"TNFRSF9 in culture medium, % Mean",[2],99.6%
same,"TNFSF14 in culture medium, % Mean",[2],89.2%
same,"TWEAK in culture medium, % Mean",[2],86.3%
same,"4E-BP1 in culture medium, % Mean",[3]; [4],45.5%
same,"ADA in culture medium, % Mean",[3]; [4],53.4%
same,"AXIN1 in culture medium, % Mean",[3]; [4],62.8%
same,"CASP-8 in culture medium, % Mean",[3]; [4],60.9%
same,"CCL4 in culture medium, % Mean",[3]; [4],85.1%
same,"CCL19 in culture medium, % Mean",[3]; [4],43.8%
same,"CCL20 in culture medium, % Mean",[3]; [4],31.5%
same,"CD244 in culture medium, % Mean",[3]; [4],76.3%
same,"CSF-1 in culture medium, % Mean",[3]; [4],70.5%
same,"CXCL1 in culture medium, % Mean",[3]; [4],52.6%
same,"CXCL5 in culture medium, % Mean",[3]; [4],68.1%
same,"CXCL6 in culture medium, % Mean",[3]; [4],54.0%
same,"CXCL9 in culture medium, % Mean",[3]; [4],45.5%
same,"CXCL10 in culture medium, % Mean",[3]; [4],42.5%
same,"CXCL11 in culture medium, % Mean",[3]; [4],61.4%
same,"EN-RAGE in culture medium, % Mean",[3]; [4],71.1%
same,"Flt3L in culture medium, % Mean",[3]; [4],62.9%
same,"IL-1 alpha in culture medium, % Mean",[3]; [4],43.5%
same,"IL-2RB in culture medium, % Mean",[3]; [4],73.0%
same,"IL-4 in culture medium, % Mean",[3]; [4],117.0%
same,"IL-5 in culture medium, % Mean",[3]; [4],85.3%
same,"IL-6 in culture medium, % Mean",[3]; [4],49.4%
same,"IL-10 in culture medium, % Mean",[3]; [4],61.4%
same,"IL-12B in culture medium, % Mean",[3]; [4],53.3%
same,"IL-13 in culture medium, % Mean",[3]; [4],53.0%
same,"IL-17A in culture medium, % Mean",[3]; [4],58.9%
same,"IL-18R1 in culture medium, % Mean",[3]; [4],63.3%
same,"IL-24 in culture medium, % Mean",[3]; [4],86.9%
same,"LAP TGF-beta-1 in culture medium, % Mean",[3]; [4],67.6%
same,"LIF in culture medium, % Mean",[3]; [4],70.0%
same,"MCP-1 in culture medium, % Mean",[3]; [4],53.0%
same,"MCP-2 in culture medium, % Mean",[3]; [4],35.4%
same,"MCP-3 in culture medium, % Mean",[3]; [4],44.6%
same,"MIP-1 alpha in culture medium, % Mean",[3]; [4],106.2%
same,"MMP-1 in culture medium, % Mean",[3]; [4],78.4%
same,"MMP-10 in culture medium, % Mean",[3]; [4],61.3%
same,"OPG in culture medium, % Mean",[3]; [4],45.1%
same,"OSM in culture medium, % Mean",[3]; [4],69.8%
same,"PD-L1 in culture medium, % Mean",[3]; [4],57.0%
same,"SIRT2 in culture medium, % Mean",[3]; [4],53.5%
same,"STAMP8 in culture medium, % Mean",[3]; [4],53.9%
same,"TGFA in culture medium, % Mean",[3]; [4],61.1%
same,"TNF in culture medium, % Mean",[3]; [4],47.4%
same,"TNFRSF9 in culture medium, % Mean",[3]; [4],71.1%
same,"TNFSF14 in culture medium, % Mean",[3]; [4],69.9%
same,"TRAIL in culture medium, % Mean",[3]; [4],67.0%
same,"TWEAK in culture medium, % Mean",[3]; [4],55.7%
same,"VEGF-A in culture medium, % Mean",[3]; [4],82.1%
same,"μPA in culture medium, % Mean",[3]; [4],86.3%
same,number of cytokines whose release was increased,"[3]; n=13, FIG. 4c",two
